Measured values published in patent publication US6933308B2 (Bristol-Myers Squibb Company, priority 2002, dated 2005).

Tested on: KCNQ channels
Test: Thallium flux assay for KCNQ channel openers
Assay type: cell-based
Conditions: HEK-293 cells stably transfected with a KCNQ family member; for Min conc. response: minimal active concentration: lowest concentration giving signal >= 4 SD of negative controls; for EC50: thallium flux, 10 point concentration series
Protocol: Thallium Flux Assay for KCNQ Channel Openers.
The thallium assay is a modification of that published by Weaver and is referenced in its entirety (Weaver, C. D. WO 02/31508, 2002).
Approximately 20,000 cells/well of an HEK-293 cell line stably transfected with one of the members of the KCNQ family were plated into clear-bottom, black-walled, poly-D-lysine coated, 384 well assay plates in 20 μl/well of low chloride plating medium. Low chloride plating medium was composed of the following: sodium gluconate, 109 mM; potassium gluconate, 5.4 mM; hemi-calcium gluconate, 3.6 mM; magnesium sulfate, 0.8 mM; sodium bicarbonate, 26.2 mM; sodium phosphate monobasic, 1.2 mM; glutamine, 2 mM; glucose, 5 mM; 4-(2-hydroxyethyl)-1-piperazineethanesulfonic acid (HEPES) (pH 7.3) 10 mM, MEM vitamin solution (10× concentration of vitamins, Gibco/LifeTechnologies 11120-052) and MEM amino acid solution (1× concentration of amino acids, Gibco/LifeTechnologies 11130-051).
Following overnight incubation in a 5% CO2 incubator at 37° C., the cells in the plates were loaded with 20 μl/well of a dye loading solution containing the commercially available thallium-sensitive fluorescent dye BTC-AM, the acetomethoxy ester of BTC (see U.S. Pat. No. 5,501,980) (2 μM) and pluronic acid F-127 (Molecular Probes P 6867) (0.02% w/v) in chloride free assay buffer. Chloride free assay buffer was composed of the following: sodium gluconate, 140 mM; potassium gluconate, 2.5 mM; hemi-calcium gluconate, 6 mM; hemi-magnesium gluconate, 2 mM; glucose, 5 mM; HEPES (pH 7.3), 10 mM.
Following incubation in the dye loading solution for from 45-90 min at room temperature, the dye loading solution was removed by aspiration and replaced with 40 μl/well of chloride free assay buffer.
Prior to addition to cell plates, test compound and standard compounds were dissolved in DMSO to 3 mM concentration. Compounds were then diluted from the 3 mM stock to 100-fold over the final assay concentration in DMSO. Finally, compounds in DMSO were diluted from 100-fold over the final assay concentration to 5-fold over the final assay concentration in chloride free assay buffer.
Ten μl/well of compounds at 5-fold over the final assay concentration were then added to the cell plates. This represents a 1:5 dilution, yielding the final test concentration. The wells used for test compounds were A1-P20. Wells A21-P22 contained a standard opener and a maximally efficacious concentration (positive control). Wells A23-P24 contained chloride free assay buffer containing 1% DMSO (negative control).
Following addition of test compounds, the plates were loaded onto the Molecular Devices FLIPR. The 488 nm line of the argon laser was used to excite the BTC and the emission filter was a 540(+/−30) nm. Images were collected at 1 Hz. Ten seconds of baseline were collected and then the FLIPR was used to add 13 μl/well of a stimulus buffer composed of 7.5 mM Tl2SO4 in chloride free assay buffer. Images were collected for an additional 60 seconds.
For data analysis, the amplitude of the average of the negative controls was subtracted from all wells. The amplitudes of the test compounds were then compared to the value of four standard deviations of the negative control wells. The lowest concentration of a test compound sufficient to generate a signal amplitude greater than or equal to four standard deviations from the amplitude of the negative controls was defined as the minimal active concentration.
For generating EC50 values, compounds were serially diluted in 1:3 volume increments to produce a 10 point concentration series. EC50 values were calculated by fitting the resulting amplitudes to a single-site logistic equation. EC50 was defined as the concentration of test compound required to yield 50% of the maximal response. Maximal response (Maximal opening) was the largest signal amplitude divided by the negative control amplitude generated by any concentration of a test compound. […]

Row | SMILES | EC50 [µM] | Min conc. response [µM]
1 | CC(NC(=O)c1sc(C(O)CN2CCCC2)nc1C(F)(F)F)c1cccc(OC(F)(F)F)c1 (centres unmarked) [Example 57, 2-[1-hydroxy-2-(1-pyrrolidinyl)ethyl]-N-[1-[3-(trifluoromethoxy)phenyl]ethyl]-4-(trifluoromethyl)-5-thiazolecarboxamide] |  | 3
2 | CCCN(CC1CC1)CC(O)c1nc(C(F)(F)F)c(C(=O)NC(C)c2cccc(C(F)(F)F)c2)s1 (centres unmarked) [Example 60, 2-[2-[(cyclopropylmethyl)propylamino]-1-hydroxyethyl]-4-(trifluoromethyl)-N-[1-[3-(trifluoromethyl)phenyl]ethyl]-5-thiazolecarboxamide] |  | 3
3 | CC(NC(=O)c1sc(C(O)CN2CCCC2)nc1C(F)(F)F)c1cccc(C(F)(F)F)c1 (centres unmarked) [Example 42, 2-[1-hydroxy-2-(1-pyrrolidinyl)ethyl]-N-[1-[3-(trifluoromethyl)phenyl]ethyl]-4-(trifluoromethyl)-5-thiazolecarboxamide] | 0.05 to 1 | 3
4 | CC(NC(=O)c1sc(C(O)CN2CCCCC2)nc1C(F)(F)F)c1cccc(OC(F)(F)F)c1 (centres unmarked) [Example 41, 2-[1-hydroxy-2-(1-piperidinyl)ethyl]-N-[1-[3-(trifluoromethoxy)phenyl]ethyl]-4-(trifluoromethyl)-5-thiazolecarboxamide] | 1 to 20 | 30
5 | CC(NC(=O)c1sc(C(O)CN2CCOCC2)nc1C(F)(F)F)c1cccc(OC(F)(F)F)c1 (centres unmarked) [Example 51, 2-[1-hydroxy-2-(4-morpholinyl)ethyl]-N-[1-[3-(trifluoromethoxy)phenyl]ethyl]-4-(trifluoromethyl)-5-thiazolecarboxamide] |  | 0.3
6 | C[C@H](NC(=O)c1sc(C(O)CN2CCN(C)CC2)nc1C(F)(F)F)c1cccc(N2CCOCC2)c1 (stereo partly drawn) [Example 54, 2-[1-hydroxy-2-(4-methyl-1-piperazinyl)ethyl]-N-[(1S)-1-[3-(4-morpholinyl)phenyl]ethyl]-4-(trifluoromethyl)-5-thiazolecarboxamide] |  | 0.3
7 | C[C@H](NC(=O)c1sc(C(O)CN2CCCC2)nc1C(F)(F)F)c1cccc(N2CCOCC2)c1 (stereo partly drawn) [Example 59, 2-[1-hydroxy-2-(1-pyrrolidinyl)ethyl]-N-[(1S)-1-[3-(4-morpholinyl)phenyl]ethyl]-4-(trifluoromethyl)-5-thiazolecarboxamide] |  | 30
8 | CCN(CC)CC(O)c1nc(C(F)(F)F)c(C(=O)N[C@@H](C)c2cccc(-c3cccnc3)c2)s1 (stereo partly drawn) [Example 50, 2-[2-(diethylamino)-1-hydroxyethyl]-N-[(1S)-1-[3-(3-pyridinyl)phenyl]ethyl]-4-(trifluoromethyl)-5-thiazolecarboxamide] |  | 0.3
9 | CC(NC(=O)c1sc(C(O)CN2CCOCC2)nc1C(F)(F)F)c1cccc(C(F)(F)F)c1 (centres unmarked) [Example 52, 2-[1-hydroxy-2-(4-morpholinyl)ethyl]-4-(trifluoromethyl)-N-[1-[3-(trifluoromethyl)phenyl]ethyl]-5-thiazolecarboxamide] |  | 10
10 | CCN(CC)CC(O)c1nc(C(F)(F)F)c(C(=O)N[C@@H](C)c2cccc(N3CCOCC3)c2)s1 (stereo partly drawn) [Example 49, 2-[2-(diethylamino)-1-hydroxyethyl]-N-[(1S)-1-[3-(4-morpholinyl)phenyl]ethyl]-4-(trifluoromethyl)-5-thiazolecarboxamide] |  | 30
11 | C[C@H](NC(=O)c1sc(CCN2CCN(C)CC2)nc1C(F)(F)F)c1cccc(N2CCOCC2)c1 [Example 48, 2-[2-(4-methyl-1-piperazinyl)ethyl]-N-[(1S)-1-[3-(4-morpholinyl)phenyl]ethyl]-4-(trifluoromethyl)-5-thiazolecarboxamide] |  | 3
12 | CC(NC(=O)c1sc(C(O)CN2CCCC2)nc1C(F)(F)F)c1cccc(N(C)C)c1 (centres unmarked) [Example 58, N-[1-[3-(dimethylamino)phenyl]ethyl]-2-[1-hydroxy-2-(1-pyrrolidinyl)ethyl]-4-(trifluoromethyl)-5-thiazolecarboxamide] |  | 0.3
13 | CC(=O)N1CCN(CC(O)c2nc(C(F)(F)F)c(C(=O)NC(C)c3cccc(C(F)(F)F)c3)s2)CC1 (centres unmarked) [Example 61, 2-[2-(4-acetyl-1-piperazinyl)-1-hydroxyethyl]-4-(trifluoromethyl)-N-[1-[3-(trifluoromethyl)phenyl]ethyl]-5-thiazolecarboxamide] |  | 10

Second part, led by results:

Row | EC50 [µM] | SMILES | Min conc. response [µM]
14 | 1 to 20 | CCN(CC)CCc1nc(C(F)(F)F)c(C(=O)N[C@@H](C)c2cccc(-c3cccnc3)c2)s1 [Example 31] | 0.3
15 | 1 to 20 | CC(NC(=O)c1sc(CCN2CCC(O)CC2)nc1C(F)(F)F)c1cccc(C(F)(F)F)c1 (centres unmarked) [Example 27, 2-[2-(4-hydroxy-1-piperidinyl)ethyl]-4-(trifluoromethyl)-N-[1-[3-(trifluoromethyl)phenyl]ethyl]-5-thiazolecarboxamide] | 30
16 | 1 to 20 | CCN(CC)CCc1nc(C(F)(F)F)c(C(=O)NC(C)c2cccc(N(C)C)c2)s1 (centres unmarked) [Example 16, 2-[2-(diethylamino)ethyl]-N-[1-[3-(dimethylamino)phenyl]ethyl]-4-(trifluoromethyl)-5-thiazolecarboxamide] | 0.3
17 | 1 to 20 | CC(NC(=O)c1sc(CCNC2CCCC2)nc1C(F)(F)F)c1cccc(OC(F)(F)F)c1 (centres unmarked) [Example 36, 2-[2-(cyclopentylamino)ethyl]-N-[1-[3-(trifluoromethoxy)phenyl]ethyl]-4-(trifluoromethyl)-5-thiazolecarboxamide] | 30
18 | 1 to 20 | CC(NC(=O)c1sc(CCN2CCCC2)nc1C(F)(F)F)c1cccc(N(C)C)c1 (centres unmarked) [Example 9, N-[1-[3-(dimethylamino)phenyl]ethyl]-2-[2-(1-pyrrolidinyl)ethyl]-4-(trifluoromethyl)-5-thiazolecarboxamide] | 10
19 | 1 to 20 | C[C@H](NC(=O)c1sc(CCN2CCCCC2)nc1C(F)(F)F)c1cccc(N2CCOCC2)c1 [Example 25, N-[1-[3-(4-morpholinyl)phenyl]ethyl]-2-[2-(1-piperidinyl)ethyl]-4-(trifluoromethyl)-5-thiazolecarboxamide] | 3
20 | 1 to 20 | COCCN(CCOC)CCc1nc(C(F)(F)F)c(C(=O)NC(C)c2cccc(C(F)(F)F)c2)s1 (centres unmarked) [Example 39] | 3
21 | 1 to 20 | CC(NC(=O)c1sc(CCN2CCCC2)nc1C(F)(F)F)c1cccc(C(F)(F)F)c1 (centres unmarked) [Example 10, 2-[2-(1-pyrrolidinyl)ethyl]-4-(trifluoromethyl)-N-[1-[3-(trifluoromethyl)phenyl]ethyl]-5-thiazolecarboxamide] | 30
22 | 0.05 to 1 | COCCN(CCOC)CCc1nc(C(F)(F)F)c(C(=O)N[C@@H](C)c2cccc(-c3cccnc3)c2)s1 [Example 40] | 30
23 | 1 to 20 | CCCN(CCc1nc(C(F)(F)F)c(C(=O)NC(C)c2cccc(N(C)C)c2)s1)CC1CC1 (centres unmarked) [Example 29, 2-[2-[(cyclopropylmethyl)propylamino]ethyl]-N-[1-[3-(dimethylamino)phenyl]ethyl]-4-(trifluoromethyl)-5-thiazolecarboxamide] | 3
